Calls of active or inactive are those of the source. The rule behind the calls is not given here.

Experiment [1] addresses Tyrosine-protein kinase SYK (Rattus norvegicus) (UniProt Q64725). Description: Inhibition of Syk phosphorylation in DNP-BSA-stimulated rat RBL2H3 cells by Western blotting. The class given is cell-based. As to conditions: RBL-2H3. In general terms: A western blot detects proteins with antibodies after separation by electrophoresis.
Experiment [2] deals with T1, 1-phosphatidylinositol 4,5-bisphosphate phosphodiesterase gamma-2 (Rattus norvegicus) (UniProt P24135).
T1 sequence (whole entry): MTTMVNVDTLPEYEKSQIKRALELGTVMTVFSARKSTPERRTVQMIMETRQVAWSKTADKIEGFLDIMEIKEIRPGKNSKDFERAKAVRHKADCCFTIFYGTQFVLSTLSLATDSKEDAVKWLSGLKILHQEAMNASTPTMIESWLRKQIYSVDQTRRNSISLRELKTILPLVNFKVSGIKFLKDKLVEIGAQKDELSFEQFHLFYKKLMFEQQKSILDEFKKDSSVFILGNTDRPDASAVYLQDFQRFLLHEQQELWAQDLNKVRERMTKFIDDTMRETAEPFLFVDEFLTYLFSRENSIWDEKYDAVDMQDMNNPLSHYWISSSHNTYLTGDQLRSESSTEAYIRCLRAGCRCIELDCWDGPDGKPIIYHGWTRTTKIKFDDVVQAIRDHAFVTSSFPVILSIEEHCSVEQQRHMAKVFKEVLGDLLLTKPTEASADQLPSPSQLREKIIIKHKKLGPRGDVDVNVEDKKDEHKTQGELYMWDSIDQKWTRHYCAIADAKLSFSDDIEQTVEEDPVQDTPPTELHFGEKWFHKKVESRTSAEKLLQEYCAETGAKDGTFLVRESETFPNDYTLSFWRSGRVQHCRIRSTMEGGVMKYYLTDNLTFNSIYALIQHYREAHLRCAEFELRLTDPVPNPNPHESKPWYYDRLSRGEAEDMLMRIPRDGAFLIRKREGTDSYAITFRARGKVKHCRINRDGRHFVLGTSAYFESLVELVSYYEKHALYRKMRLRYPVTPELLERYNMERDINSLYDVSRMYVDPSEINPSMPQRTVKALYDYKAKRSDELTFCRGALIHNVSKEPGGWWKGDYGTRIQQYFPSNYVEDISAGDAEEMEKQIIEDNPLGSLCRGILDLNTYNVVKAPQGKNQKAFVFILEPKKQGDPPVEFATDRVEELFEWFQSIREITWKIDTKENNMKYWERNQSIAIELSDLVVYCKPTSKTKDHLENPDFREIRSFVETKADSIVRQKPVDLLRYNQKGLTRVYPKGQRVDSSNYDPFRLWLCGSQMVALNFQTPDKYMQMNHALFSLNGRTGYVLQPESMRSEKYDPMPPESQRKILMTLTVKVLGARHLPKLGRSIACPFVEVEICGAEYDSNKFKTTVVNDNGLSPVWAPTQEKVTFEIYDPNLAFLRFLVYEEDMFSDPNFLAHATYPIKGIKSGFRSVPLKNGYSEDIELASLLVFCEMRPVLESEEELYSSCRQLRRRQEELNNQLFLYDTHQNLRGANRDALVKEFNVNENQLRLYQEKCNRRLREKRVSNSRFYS
Nature of the experiment: Inhibition of PLCgamma2 phosphorylation in DNP-BSA-stimulated rat RBL2H3 cells by Western blotting. The class given is cell-based. As to conditions: RBL-2H3.

Experiment [3] deals with T2, 1-phosphatidylinositol 4,5-bisphosphate phosphodiesterase gamma-1 (Rattus norvegicus) (UniProt P10686).
T2 sequence (whole entry): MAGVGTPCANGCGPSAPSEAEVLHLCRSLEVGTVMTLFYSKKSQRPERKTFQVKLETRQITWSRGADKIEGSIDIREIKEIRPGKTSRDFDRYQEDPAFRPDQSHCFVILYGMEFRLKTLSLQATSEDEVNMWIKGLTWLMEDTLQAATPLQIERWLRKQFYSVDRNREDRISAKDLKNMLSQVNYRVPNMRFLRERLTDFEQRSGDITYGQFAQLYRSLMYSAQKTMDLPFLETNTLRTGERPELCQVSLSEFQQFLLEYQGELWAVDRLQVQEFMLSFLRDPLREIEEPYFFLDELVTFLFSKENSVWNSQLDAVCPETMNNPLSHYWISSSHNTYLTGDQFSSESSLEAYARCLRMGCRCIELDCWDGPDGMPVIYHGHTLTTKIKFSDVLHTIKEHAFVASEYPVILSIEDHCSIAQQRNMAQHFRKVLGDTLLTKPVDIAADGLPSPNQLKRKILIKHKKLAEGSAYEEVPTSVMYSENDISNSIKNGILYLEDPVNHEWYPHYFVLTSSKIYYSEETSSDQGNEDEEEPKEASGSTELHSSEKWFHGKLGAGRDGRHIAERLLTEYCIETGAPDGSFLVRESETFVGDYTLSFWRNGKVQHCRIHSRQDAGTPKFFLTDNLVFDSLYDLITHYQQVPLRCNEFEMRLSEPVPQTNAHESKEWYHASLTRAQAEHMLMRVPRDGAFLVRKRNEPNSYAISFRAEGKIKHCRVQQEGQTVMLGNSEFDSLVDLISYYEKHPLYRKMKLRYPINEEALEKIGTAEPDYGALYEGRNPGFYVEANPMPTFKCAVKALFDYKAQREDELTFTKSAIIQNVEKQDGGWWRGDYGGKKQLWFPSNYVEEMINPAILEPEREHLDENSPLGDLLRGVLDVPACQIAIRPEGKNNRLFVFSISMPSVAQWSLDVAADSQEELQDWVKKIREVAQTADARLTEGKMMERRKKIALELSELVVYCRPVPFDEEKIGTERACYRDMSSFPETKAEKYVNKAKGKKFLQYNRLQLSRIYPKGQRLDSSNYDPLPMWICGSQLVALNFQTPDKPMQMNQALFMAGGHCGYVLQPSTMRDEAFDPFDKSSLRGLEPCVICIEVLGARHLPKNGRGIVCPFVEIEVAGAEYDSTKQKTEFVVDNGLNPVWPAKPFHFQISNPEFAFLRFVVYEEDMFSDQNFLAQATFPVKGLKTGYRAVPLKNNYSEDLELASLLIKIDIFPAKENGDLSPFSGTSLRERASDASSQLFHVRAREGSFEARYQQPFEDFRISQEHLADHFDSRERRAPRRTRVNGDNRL
Description: Inhibition of PLCgamma1 phosphorylation in DNP-BSA-stimulated rat RBL2H3 cells by Western blotting. The class given is cell-based. As to conditions: RBL-2H3.

In experiment [4] the test system is Radical scavenging activity. Nature of the experiment: Antioxidant activity assessed as radical DPPH scavenging activity. The class given is functional. In general terms: The DPPH test is a chemical assay of radical scavenging.
The subject of experiment [5] is RBL-2H3. Description: Inhibition of ERK phosphorylation in DNP-BSA-stimulated rat RBL2H3 cells by Western blotting. Type of experiment: cell-based.
Experiment [6] concerns RBL-2H3. Description: Antiallergic activity in IgE-sensitized rat RBL2H3 cells assessed as inhibition of A-23187-stimulated beta hexaminidase release relative to control. Type of experiment: functional, cell-based.
The test system of experiment [7] is RBL-2H3. Nature of the experiment: Inhibition of ERK in DNP-BSA-stimulated rat RBL2H3 cells assessed as reduction in cPLA2 phosphorylation by Western blotting. The class given is cell-based.
Experiment [8] deals with RBL-2H3. Description: Inhibition of p38 phosphorylation in DNP-BSA-stimulated rat RBL2H3 cells by Western blotting. The class given is cell-based.
Experiment [9] has as its system RBL-2H3. Nature of the experiment: Inhibition of JNK phosphorylation in DNP-BSA-stimulated rat RBL2H3 cells by Western blotting. The class given is cell-based.
For experiment [10], the system named is RBL-2H3. Description: Antiallergic activity in IgE-sensitized rat RBL2H3 cells assessed as inhibition of DNP-BSA-stimulated beta hexaminidase release relative to control. The class given is functional, cell-based.
For experiment [11], the system named is RBL-2H3. Nature of the experiment: Antiallergic activity in IgE-sensitized DNP-BSA-stimulated rat RBL2H3 cells assessed as decrease in intracellular Ca2+ level by fluorimetry. The class given is functional, cell-based.
Experiment [12] has as its system RBL-2H3. Description: Antioxidant activity in IgE-sensitized rat RBL2H3 cells assessed as reduction in DNP-BSA-mediated intracellular ROS production at 50 uM after 30 mins by fluorimetry. Type of experiment: functional, cell-based.

Tyrosine-protein kinase SYK (Rattus norvegicus), sequence (Q64725 whole entry, looked up): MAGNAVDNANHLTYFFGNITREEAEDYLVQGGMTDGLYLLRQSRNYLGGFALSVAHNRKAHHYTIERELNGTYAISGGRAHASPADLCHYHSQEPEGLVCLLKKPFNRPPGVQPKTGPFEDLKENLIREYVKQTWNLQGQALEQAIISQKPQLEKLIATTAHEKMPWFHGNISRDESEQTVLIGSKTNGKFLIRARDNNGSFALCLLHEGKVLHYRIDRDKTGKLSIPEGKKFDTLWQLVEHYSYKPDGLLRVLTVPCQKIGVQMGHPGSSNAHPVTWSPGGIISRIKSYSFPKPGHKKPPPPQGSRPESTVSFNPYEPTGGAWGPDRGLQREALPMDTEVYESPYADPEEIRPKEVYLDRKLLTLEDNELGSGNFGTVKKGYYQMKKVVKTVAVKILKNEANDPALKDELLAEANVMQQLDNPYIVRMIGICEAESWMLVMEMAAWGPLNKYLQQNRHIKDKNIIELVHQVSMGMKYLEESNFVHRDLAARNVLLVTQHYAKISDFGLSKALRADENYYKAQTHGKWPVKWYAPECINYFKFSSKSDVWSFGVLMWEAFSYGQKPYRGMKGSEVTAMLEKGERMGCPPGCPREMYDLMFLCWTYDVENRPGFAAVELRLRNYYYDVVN

Regarding `O=C(O[C@@H]1Cc2c(O)cc(O)cc2O[C@@H]1c1cc(O)c(O)c(O)c1)c1cc(O)c(O)c(O)c1`, the result in experiment [1], in experiment [2] and in [3] was inactive. In addition, the ED50 in experiment [4] was determined as 7 µM.

As for `O=c1c(O)c(-c2ccc(O)cc2)oc2cc(O)cc(O)c12`, the outcome in [5], in experiment [6], in experiment [1], in [2], in [7] and in [8] was Active. Besides, the outcome in experiment [3], in experiment [9] and in experiment [11] was Active. In addition, in [10], the inhibition entry was “Active”. For the same compound, the ED50 in [4] was under 100 µM.

VITAMIN E: in experiment [4], the ED50 came to 78 µM.

In the case of `O=C1O[C@H]([C@@H](O)CO)C(O)=C1O`, the ED50 in experiment [4] was 18 µM.

For `O=c1cc(-c2ccccc2)oc2cc(O)cc(O)c12`, the outcome in [5], in [1], in experiment [2], in experiment [8], in experiment [3] and in experiment [9] was inactive. In addition, the result in experiment [6] and in experiment [11] was Active. Besides, the inhibition result in experiment [10] is “Active”. Moreover, the ED50 in experiment [4] is under 100 µM.

Take `O=C(/C=C/c1ccccc1)Oc1cc(O)c2c(=O)cc(-c3ccccc3)oc2c1`: the outcome in [5], in [6], in [7], in [8], in experiment [12] and in experiment [9] was Active. Moreover, the outcome in experiment [11] was Active. In addition, the outcome in [1], in [2] and in experiment [3] was inactive. The inhibition entry in experiment [10] was “Active”. In addition, the ED50 in experiment [4] was under 100 µM.

Regarding `O=C(/C=C/c1ccc(O)cc1)OC[C@H]1O[C@@H](Oc2c(-c3ccc(O)cc3)oc3cc(O)cc(O)c3c2=O)[C@H](O)[C@@H](O)[C@@H]1O`, the result in [5], in experiment [6], in [7], in [8], in [12] and in experiment [9] was Active. In addition, the result in experiment [11] was Active. Besides, the result in experiment [1], in [2] and in experiment [3] was inactive. Further, the inhibition result in [10] was “Active”. Also, in experiment [4], the ED50 was under 100 µM.

For the origin of these results see ChEMBL document CHEMBL1153461, “Inhibitory effects of flavonoids isolated from Fragaria ananassa Duch on IgE-mediated degranulation in rat basophilic leukemia RBL-2H3” (Bioorg Med Chem, 2009).
